Test results published in article PMC5373689 (Science (New York, N.Y.), 2016).

Key:
CatSper = CatSper (Homo sapiens, UniProt Q7RTX7+Q86XQ3+Q8NEC5+Q96P56); test: whole-cell patch clamp of human spermatozoa; format: cell-based
[1] = biological target: T1, α/β hydrolase domain–containing protein 2 (ABHD2) (Homo sapiens, UniProt P08910); test: monoacylglycerol hydrolysis by recombinant ABHD2; format: cell-based
T1 sequence (P08910 1-425): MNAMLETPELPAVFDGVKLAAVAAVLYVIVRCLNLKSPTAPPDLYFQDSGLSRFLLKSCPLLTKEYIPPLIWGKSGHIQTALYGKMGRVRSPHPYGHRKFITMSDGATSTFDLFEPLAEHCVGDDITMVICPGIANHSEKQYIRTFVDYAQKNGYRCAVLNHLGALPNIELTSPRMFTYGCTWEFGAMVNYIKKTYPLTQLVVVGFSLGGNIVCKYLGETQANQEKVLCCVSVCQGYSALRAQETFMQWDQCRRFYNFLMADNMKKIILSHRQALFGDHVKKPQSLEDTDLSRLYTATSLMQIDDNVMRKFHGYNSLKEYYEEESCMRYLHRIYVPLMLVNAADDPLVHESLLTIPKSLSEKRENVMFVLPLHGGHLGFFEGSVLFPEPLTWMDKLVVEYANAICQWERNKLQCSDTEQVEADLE

CatSper, sequence (Q8NEC5 whole entry, the tested form may be a part): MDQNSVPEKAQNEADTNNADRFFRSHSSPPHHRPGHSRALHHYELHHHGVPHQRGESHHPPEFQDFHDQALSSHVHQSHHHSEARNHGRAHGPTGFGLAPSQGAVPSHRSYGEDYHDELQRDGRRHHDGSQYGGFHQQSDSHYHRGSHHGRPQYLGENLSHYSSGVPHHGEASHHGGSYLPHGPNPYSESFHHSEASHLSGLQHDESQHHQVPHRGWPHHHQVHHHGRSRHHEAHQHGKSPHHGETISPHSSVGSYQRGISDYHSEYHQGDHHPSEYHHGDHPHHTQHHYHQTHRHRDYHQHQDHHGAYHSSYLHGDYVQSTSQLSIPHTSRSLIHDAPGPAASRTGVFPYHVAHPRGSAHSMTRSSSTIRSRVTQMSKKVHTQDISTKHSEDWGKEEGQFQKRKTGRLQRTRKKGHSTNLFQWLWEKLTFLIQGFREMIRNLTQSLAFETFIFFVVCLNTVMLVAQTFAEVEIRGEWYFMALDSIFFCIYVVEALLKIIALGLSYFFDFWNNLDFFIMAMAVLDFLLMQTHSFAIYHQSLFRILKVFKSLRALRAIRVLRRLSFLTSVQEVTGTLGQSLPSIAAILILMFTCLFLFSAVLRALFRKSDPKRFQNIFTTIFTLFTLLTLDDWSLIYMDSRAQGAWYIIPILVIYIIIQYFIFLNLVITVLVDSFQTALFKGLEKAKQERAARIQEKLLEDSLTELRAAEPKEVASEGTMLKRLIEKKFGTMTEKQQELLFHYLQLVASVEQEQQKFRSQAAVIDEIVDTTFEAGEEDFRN
CatSper, sequence (Q96P56 whole entry, the tested form may be a part): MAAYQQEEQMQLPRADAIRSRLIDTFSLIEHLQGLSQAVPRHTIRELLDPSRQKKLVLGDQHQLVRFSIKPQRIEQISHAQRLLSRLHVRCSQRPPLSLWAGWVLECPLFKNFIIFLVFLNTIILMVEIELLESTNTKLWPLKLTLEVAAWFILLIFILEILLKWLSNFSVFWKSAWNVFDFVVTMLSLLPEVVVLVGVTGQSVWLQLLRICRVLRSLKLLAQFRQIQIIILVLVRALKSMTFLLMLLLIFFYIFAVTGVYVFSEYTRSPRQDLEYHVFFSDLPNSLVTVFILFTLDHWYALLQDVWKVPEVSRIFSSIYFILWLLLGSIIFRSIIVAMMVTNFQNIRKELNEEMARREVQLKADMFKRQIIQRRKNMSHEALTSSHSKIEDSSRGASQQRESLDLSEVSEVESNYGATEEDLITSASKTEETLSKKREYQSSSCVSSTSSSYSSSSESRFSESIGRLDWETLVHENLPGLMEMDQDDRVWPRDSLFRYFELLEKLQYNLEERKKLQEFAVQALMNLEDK
CatSper, sequence (Q86XQ3 whole entry, the tested form may be a part): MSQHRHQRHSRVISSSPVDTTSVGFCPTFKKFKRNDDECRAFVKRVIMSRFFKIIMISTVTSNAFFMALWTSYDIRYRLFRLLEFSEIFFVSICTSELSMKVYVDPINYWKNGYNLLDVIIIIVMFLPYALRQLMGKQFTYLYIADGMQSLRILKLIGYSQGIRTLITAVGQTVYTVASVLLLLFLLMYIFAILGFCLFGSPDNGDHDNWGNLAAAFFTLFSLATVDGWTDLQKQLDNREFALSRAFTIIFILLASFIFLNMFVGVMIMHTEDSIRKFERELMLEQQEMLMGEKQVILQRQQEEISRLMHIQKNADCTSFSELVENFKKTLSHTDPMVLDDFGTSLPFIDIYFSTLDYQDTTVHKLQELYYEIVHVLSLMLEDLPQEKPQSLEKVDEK
CatSper, sequence (Q7RTX7 whole entry, the tested form may be a part): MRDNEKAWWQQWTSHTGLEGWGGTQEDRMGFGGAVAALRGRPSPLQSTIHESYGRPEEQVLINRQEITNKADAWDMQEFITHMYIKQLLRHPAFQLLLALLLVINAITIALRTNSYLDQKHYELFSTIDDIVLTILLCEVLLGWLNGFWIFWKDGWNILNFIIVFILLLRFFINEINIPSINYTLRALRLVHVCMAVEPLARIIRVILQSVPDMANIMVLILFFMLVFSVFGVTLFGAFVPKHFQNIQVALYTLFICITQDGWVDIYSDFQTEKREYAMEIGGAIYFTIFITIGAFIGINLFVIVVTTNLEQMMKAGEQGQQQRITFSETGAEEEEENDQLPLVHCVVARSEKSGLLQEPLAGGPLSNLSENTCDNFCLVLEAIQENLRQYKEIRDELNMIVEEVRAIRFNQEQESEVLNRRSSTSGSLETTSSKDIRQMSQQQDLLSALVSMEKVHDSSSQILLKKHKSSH

| SMILES | whole-cell patch clamp of human spermatozoa (CatSper) | monoacylglycerol hydrolysis by recombinant ABHD2 (free glycerol production) with [1] |
| --- | --- | --- |
| CCCCC/C=C\C/C=C\C/C=C\C/C=C\CCCC(=O)OCC(O)CO (centres unmarked) [1AG, 1-arachidonoylglycerol] | whereas 1AG and 2AG (AGs) inhibited ICatSper | – |
| CCCCC/C=C\C/C=C\C/C=C\C/C=C\CCCC(=O)OC(CO)CO [2AG, 2-arachidonoylglycerol] | – | ABHD2, which metabolizes endocannabinoids 1AG and 2AG only in the presence of progesterone |
